Assay results taken from patent US9018248B2, “Fatty acid derivatives of catechins and methods of their use” (Genesis Group Inc., priority 2010, dated 2015).

Assays:
[1] = DPPH radical scavenging capacity by EPR; conditions: test compounds 25 μM in ethanol, EPR after 1 min
Procedure: An ORAC (Oxygen Radical Absorbance Capacity) assay was carried out using a Fluostar Optima plate reader (BMG Labtech, Durham, N.C.) equipped with an incubator and two injector pumps. A modified method for lipophilic antioxidants was followed, in which randomly methylated cyclodextrin (RMCD) was used as water solubility enhancer, as described by Huang et al, J. Agric. Food Chem., 2002, 50, 1815-1821. Trolox standards (6.25-50 μM) and samples (0.25 μM) were dissolved in acetone/water (1:1, v/v) containing 7% RMCD. Fluorescein and […] [2,2′-azobis(2-aminopropane)dihydrochloride] were used as the probe and radical generator, respectively. Twenty microliters of trolox standard or test compound solutions (7% RMCD used as a control) were added into each well of a 96-well black microplate, followed by addition of fluorescein. The plate was incubated at 37° C. for 15 min and then AAPH in buffer was injected into the wells. The conditions used were as follows: 0.3 s position delay, 8 s orbital shaking before each cycle with 4 mm width, 210 s cycle time, and 25 cycles. Fluorescence was measured at an excitation wavelength of 485 nm and emission of 520 nm. A standard curve was plotted and ORAC values for test compounds were obtained as mol of trolox equivalents (TE) per mol of test compound. (3b) Reducing Power The reducing power of EGCG and its derivatives (compounds 1a-1c) was determined according to Oyaizu (1986). One milliliter of test compounds (1 mM in 95% ethanol) was mixed with 2.5 ml of phosphate buffer solution (PBS, 0.2 M, pH 6.6) and 2.5 ml of a 1% solution of potassium ferricyanide, K3Fe(CN)6. The mixture was incubated at 50° C. for 20 min. […] The content was mixed well and the absorbance was recorded at 700 nm. Higher absorbance of the reaction mixture indicates greater reducing power. […] (3c) Metal Chelation The metal chelation capacity was measured following a procedure by Decker E. A. et al., J. Agric. […] The absorbance was measured afterwards at 562 nm. A blank without ferrozine was run for each compound, since the antioxidant-Fe^2+ complex gives a colour that might interfere with the absorbance reading. Metal chelation capacity was calculated using the following equation: % chelation=[1−(Abs.sample−Abs.blank)/Abs.control]×100 where, control was devoid of test compounds, while blank contained no ferrozine. (3d) DPPH Antioxidant activity of the lipophilic EGCG derivatives was ALSO evaluated as DPPH (1,1-diphenyl-2-picrylhydrazyl) radical scavenging capacity using EGCG as the reference. DPPH scavenging capacity of test compounds was determined by EPR (electron paramagnetic resonance) according to Madhujith and Shahidi (16) with slight modifications. […] The spectrum was recorded after 1 min. […]

[2] = Incorporation into liposomes; assay type: physicochemical; conditions: 500 μM in ethanol added to MLV, 20 min, 37° C.
Procedure: Phosphotidylcholine (PC) (25 mg) was dissolved in a small amount of chloroform in a round bottom flask, followed by evaporation of the solvent with a rotary evaporator to obtain a thin layer film on the inner surface of the flask. Trace solvent was removed by nitrogen flush. An aqueous glucose solution (300 mM, 5 ml) was added to the flask, and the content was thoroughly vortexed and sonicated in an ultrosonicator, followed by a repeated freeze-thaw processing (4 times). The liposomal solution was diluted with 45 ml of phosphate buffer saline (PBS, 50 mM, pH7.4) and transferred into a centrifuge tube. The content was centrifuged at 13000 g for 5 min to remove the untrapped glucose. The sediment was re-suspended in 25 ml of PBS to obtain a final liposomal MLV. An aliquot (0.9 ml) of the above MLV was transferred to an Eppendorf tube containing 0.1 ml of test compounds (500 μM in ethanol) or ethanol blank. The content was mixed by vortexing and incubated for 20 min at 37° C. After incubation the mixture was centrifuged at 13000 g for 5 min, and the sediment was washed with 1 ml of 10% ethanol (in PBS), followed by a second centrifugation. The supernatants were combined and absorbance measured at 280 nm. A series of standard solutions in 10% ethanol at different concentrations was prepared for each test compound and their absorbance measured at 280 nm to construct a standard curve (absorbance VS. concentration). The un-incorporated test compounds in the supernatant were quantified using their corresponding standard curve. Percentage incorporation of each compound into the liposomes was calculated according to the following equation: % incorporation=100×(1−amount un-incorporated/amount added)=100×(1−C×2/50) where, C is the concentration of test compounds read from the standard curve. Discussion

[3] = target: HCV NS3/4A protease (Hepatitis C virus genotype 1a, UniProt P27958); experiment: Inhibition against HCV protease; assay type: biochemical; conditions: for IC50: HCV NS3/4A protease 0.5 μg/ml, 30 min, room temperature; for HCV protease inhibitory activity relative to embelin: fold stronger than embelin
Chain of HCV NS3/4A protease (P27958 1027-1657): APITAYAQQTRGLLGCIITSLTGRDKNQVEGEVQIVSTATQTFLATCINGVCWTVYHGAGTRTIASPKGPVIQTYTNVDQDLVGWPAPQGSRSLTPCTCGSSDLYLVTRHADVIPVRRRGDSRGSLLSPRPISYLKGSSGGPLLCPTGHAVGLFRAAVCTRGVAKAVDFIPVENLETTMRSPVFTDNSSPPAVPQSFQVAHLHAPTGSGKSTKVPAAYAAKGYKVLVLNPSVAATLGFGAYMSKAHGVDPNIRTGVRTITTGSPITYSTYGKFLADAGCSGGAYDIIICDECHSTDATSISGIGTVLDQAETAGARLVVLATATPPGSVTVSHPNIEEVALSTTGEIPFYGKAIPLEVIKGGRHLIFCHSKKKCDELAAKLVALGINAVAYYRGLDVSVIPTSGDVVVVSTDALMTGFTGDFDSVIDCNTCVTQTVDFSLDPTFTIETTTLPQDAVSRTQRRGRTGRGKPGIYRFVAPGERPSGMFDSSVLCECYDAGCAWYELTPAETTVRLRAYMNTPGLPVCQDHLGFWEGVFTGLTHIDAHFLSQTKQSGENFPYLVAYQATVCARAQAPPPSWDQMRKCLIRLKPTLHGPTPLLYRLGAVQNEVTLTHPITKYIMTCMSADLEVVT
Chain of HCV NS3/4A protease (P27958 1658-1711): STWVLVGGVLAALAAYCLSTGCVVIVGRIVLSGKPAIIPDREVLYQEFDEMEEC
Procedure: An aliquot (2 μl) of test compounds dissolved in DMSO was added to each well of a 384-well black Assay plate, followed by addition of 8 μl of HCV NS3/4A protease solution (0.5 μg/ml). The reaction was initiated by adding 10 μl of freshly diluted substrate (100× dilution of a DMSO stocking solution). The mixture was incubated at room temperature for 30 min, and the fluorescence intensity was measured at 485 nm for excitation and 535 nm for emission by a TECAN GENios plate reader. […] All fluorescence values were corrected with a substrate blank. Samples were assayed at different concentrations to plot a concentration VS. inhibition percentage curve, and IC50 values were obtained from the curve for each sample. A known HCV protease inhibitor, embelin, was used as a reference. Discussion

| % incorporation into liposomes [2] [%] | IC50 [3] [nM] | HCV protease inhibitory activity relative to embelin [3] | SMILES | DPPH scavenging [1] [mmol trolox eq./mol] |
| --- | --- | --- | --- | --- |
| 91.19 | 130 | approximately 80 fold | CCCCCCCCCCCCCCCCCC(=O)Oc1cc(C(=O)OC2Cc3c(O)cc(O)cc3OC2c2cc(OC(=O)CCCCCCCCCCCCCCCCC)c(O)c(OC(=O)CCCCCCCCCCCCCCCCC)c2)cc(OC(=O)CCCCCCCCCCCCCCCCC)c1O (stereo not drawn) [Compound 1a, EGCG stearate] | 5.85 |
| 71.81 | 6 | 1700 fold | CCC=CCC=CCC=CCC=CCC=CCCCC(=O)Oc1cc(C(=O)OC2Cc3c(O)cc(O)cc3OC2c2cc(OC(=O)CCCC=CCC=CCC=CCC=CCC=CCC)c(O)c(OC(=O)CCCC=CCC=CCC=CCC=CCC=CCC)c2)cc(OC(=O)CCCC=CCC=CCC=CCC=CCC=CCC)c1O (stereo not drawn) [Compound 1b] | 4.66 |
| 80.91 | 6 | 1700 fold | CCC=CCC=CCC=CCC=CCC=CCC=CCCC(=O)Oc1cc(C(=O)OC2Cc3c(O)cc(O)cc3OC2c2cc(OC(=O)CCC=CCC=CCC=CCC=CCC=CCC=CCC)c(O)c(OC(=O)CCC=CCC=CCC=CCC=CCC=CCC=CCC)c2)cc(OC(=O)CCC=CCC=CCC=CCC=CCC=CCC=CCC)c1O (stereo not drawn) [Compound 1c] | 5.09 |

| SMILES | % incorporation into liposomes [2] [%] | IC50 [3] [nM] | HCV protease inhibitory activity relative to embelin [3] | DPPH scavenging [1] [mmol trolox eq./mol] |
| --- | --- | --- | --- | --- |
| O=C(O[C@@H]1Cc2c(O)cc(O)cc2O[C@@H]1c1cc(O)c(O)c(O)c1)c1cc(O)c(O)c(O)c1 [EGCG, Epigallocatechin gallate, reference compound] | 65.17 | > 200000 |  | 3.13 |
